Laboratory results taken from US5616579A, “Anti-ulcer pyridyloxy derivatives, their preparation and uses” (Sankyo Company, Limited, priority 1992, dated 1997).

Experiments:
guinea pig right atrium = experiment: Atrial Test in Guinea Pigs (inhibition of histamine-stimulated heart rate, isolated right atrium); details: Cavia porcellus; test compound 1 μg/ml; 10^-5 M histamine; heart rate vs control
Method: Atrial Test in Guinea Pigs
The guinea pig right atrium in a spontaneous palpitation was excised, suspended in 40 ml of Krebs-Henselite solution, and a tension of 1 g was loaded between the atrium preparation and a transducer. The solution was aerated at a fixed rate at 37° C. 10^-5 M histamine was added, and the heart rate was recorded as control. A test compound was added to a concentration of 1 μg/ml and then, after 3 minutes, 10^-5 M histamine was added, and the heart rate was again recorded. The inhibitory rate (R %) compared to the control group was calculated according to the following equation: […]
A: The heart rate of the control group
B: The heart rate of the group to which the drug was administered

gastric acid output = experiment: Inhibition of Gastric Secretions (Shay's method, pylorus-ligated rats); type: in vivo, rat (male SD); details: Rattus norvegicus, intraduodenal, 4 hours
Method: Inhibition of Gastric Secretions
This test was carried out according to Shay's method [H. Shay: Gastroenterology 5, 43 (1945)] using male SD rats (5 weeks old). The rats were divided into groups, each group containing 5 rats. The animals were fasted for 24 hours before the beginning of the experiment. They were then anesthetized with ether, the abdominal region was opened, and the pylorus was ligated. A test compound suspended in a 0.5% w/v aqueous carboxymethylcellulose (CMC) solution was administered intraduodenally. After 4 hours, the rat was sacrificed by deep anesthesia with ether, and the stomach was excised. The gastric juice was removed, centrifuged for 15 minutes at 2500 rpm, and then 0.1 ml of the supernatant was taken out and titrated until the end point of neutralization with a 0.01N aqueous solution of sodium hydroxide, to determine the total gastric acidity. The amount of gastric acid secreted per hour (μEq/hr) was calculated, and the inhibition rate (R %) to the control group was calculated according to the following equation.
A: The gastric acid output of the control group (μEq/hr)
B: The amount of gastric acid output of the drug administered group (μEq/hr)

gastric mucosa = experiment: HCl-Ethanol-Induced Ulcer Test in Rats; type: in vivo, rat (male SD); details: dose 50 mg/kg, oral, 60 minutes before HCl-ethanol
Method: HCl-Ethanol-Induced Ulcer Test in Rats
Male SD rats (6 to 8 weeks old) were fasted for 24 hours before the beginning of the experiment. Each was then administered orally with 1 ml of a 60% ethanol solution containing 150 mM of hydrogen chloride. After 1 hour, the stomach was excised. Into the stomach was injected 10 ml of a 0.5% formaldehyde solution, and the stomach was fixed for 20 minutes. The injured area (mm^2) occuring on the surface of the gastric mucosa was measured, and the total injured area per rat was regarded as the injury index.
Test compounds and 0.5% CMC, as the control, were orally administered each at a dose of 0.1 ml/100 g, 60 minutes before treatment with the HCl-ethanol solution.
The ulcer formation inhibitory rate (R %) was calculated by the following equation.
A: The injury index of the control group (mm^2)
B: The injury index of the drug administered group (mm^2)

Row | Structure (SMILES) | inhibition at 1 µg/mL (guinea pig right atrium) | inhibition in vivo at 50 mg/kg (gastric acid output) | % Inhibition (ulcer formation) (gastric mucosa) | inhibition in vivo at 12.5 mg/kg (gastric acid output) | inhibition in vivo at 25 mg/kg (gastric acid output)
1 | O=C(CSCCO)NCCCOc1cccc(CN2CCCCC2)c1 [Compound A, reference compound] | 68% | -67% | 39% |  | 
2 | O=C(CSCc1ccco1)NC/C=C\COc1cc(CN2CCCCC2)ccn1 [Compound B, reference compound] | 99% | -40% | 97% |  | 
3 | O=C(CSCCO)NC/C=C\COc1cc(CN2CCCCC2)ccn1 [Example 1, N-[4-(4-piperidinomethyl-2-pyridyloxy)-cis-2-butenyl]-2-(2-hydroxyethylthio)acetamide] | 86% | 63% |  |  | 
4 | CC(=O)OCCSCC(=O)NC/C=C\COc1cc(CN2CCCCC2)ccn1 [Example 2, N-[4-(4-Piperidinomethyl-2-pyridyloxy)-cis-2-butenyl]-2-(2-acetoxyethylthio)acetamide] | 90% | 52% | 100% |  | 
5 | CC(=O)OCCSCCCC(=O)NC/C=C\COc1cc(CN2CCCCC2)ccn1 [Example 6, N-[4-(4-Piperidinomethyl-2-pyridyloxy)-cis-2-butenyl]-4-(2-acetoxyethylthio)butyramide] | 86% | 73% |  |  | 
6 | CCC(=O)OCCSCC(=O)NC/C=C\COc1cc(CN2CCCCC2)ccn1 [Example 7, N-[4-(4-Piperidinomethyl-2-pyridyloxy)-cis-2-butenyl]-2-(2-propionyloxyethylthio)acetamide] |  |  | 61% | 51% | 63%
7 | O=C(NC/C=C\COc1cc(CN2CCCCC2)ccn1)c1cn[nH]c1 [Example 13, N-[4-(4-piperidinomethyl-2-pyridyloxy)-cis-2-butenyl]pyrazole-4-carboxamide] | 84% | 80% | 87% |  | 62%
8 | Nc1n[nH]cc1C(=O)NC/C=C\COc1cc(CN2CCCCC2)ccn1 [Example 17, 3-Amino-N-[4-(4-piperidinomethyl-2-pyridyloxy) -cis-2-butenyl]pyrazole-4-carboxamide] | 83% | 71% |  |  | 73%
9 | O=C(NC/C=C\COc1cc(CN2CCCCC2)ccn1)c1cscn1 [Example 26, N-[4-(4-Piperidinomethyl-2-pyridyloxy) -cis-2-butenyl]thiazole-4-carboxamide] | 80% |  |  |  | 
10 | O=C(CCCSc1ncccn1)NC/C=C\COc1cc(CN2CCCCC2)ccn1 [Example 34, N-[4-(4-Piperidinomethyl-2-pyridyloxy) -cis-2-butenyl]-4-(2-pyrimidinylthio) butyramide] | 94% |  | 79% | 61% | 86%
11 | Cc1nnc(SCCCC(=O)NC/C=C\COc2cc(CN3CCCCC3)ccn2)o1 [Example 37, N-[4-(4-Piperidinomethyl-2-pyridyloxy)-cis-2-butenyl]-4-(5-methyl-1,3,4-oxadiazol-2-ylthio)butyramide] | 99% | 74% |  |  | 
12 | O=C(CCCSc1nc[nH]n1)NC/C=C\COc1cc(CN2CCCCC2)ccn1 [Example 41, N-[4-(4-Piperidinomethyl-2-pyridyloxy)-cis-2-butenyl]-4-(1,2,4-triazol-3-ylthio)butyramide] | 85% | 76% |  |  | 61%
13 | CC(C)NC(=O)NC/C=C\COc1cc(CN2CCCCC2)ccn1 [Example 48, N-[4-(4-piperidinomethyl-2-pyridyloxy) -cis-2-butenyl]-N'-isopropylurea] | 81% | 71% | 78% |  | 
14 | O=C(NC/C=C\COc1cc(CN2CCCCC2)ccn1)NC1CCC1 [Example 58, N-Cyclobutyl-N'-[4-(4-piperidinomethyl-2-pyridyloxy) -cis-2-butenyl]urea] |  | 56% |  |  | 
